# Values quoted from earlier work as cited in article PMC7401249 (Marine Drugs, 2020).
# Entries after “also recorded” stand apart in the source; their conditions may differ.
Substance,NaV1.7 block (NaV1.7),hCaV3.2 current block among three CaV3.x subtypes (hCaV3.2),inhibition of CaV3.1 current over CaV3.2 (CaV3.1)
ProTx-II,NaV1.7 selective blocker; also recorded: inhibits NaV1.7,selectively block the hCaV3.2 current,
ProTx-I,,,selective inhibition
